From patent publication US11952388B2, “Crystal form of tri-cycle compound and application thereof” (FUJIAN AKEYLINK BIOTECHNOLOGY CO., LTD., priority 2018, dated 2024) come the findings set out here.

Series [1] has as its system proteins in CD-1 mouse plasma. Description: Plasma protein binding rate (equilibrium dialysis). The format is in vitro ADME, CD-1 mouse (mus musculus). How it is done:
(§1) Objectives of Experiment: to determine the binding rate of test compound to proteins in human and CD-1 mouse plasma
(§2) Experimental operation: 796 μL of blank plasma was taken from human and CD-1 mouse, and 4 μL of test compound working solution (400 μM) or warfarin working solution (400 μM) was added to make the final concentrations of both test compound and warfarin in the plasma sample 2 μM. The sample was mixed thoroughly. The final concentration of DMSO in the organic phase was 0.5%; 50 μt of plasma samples of test compound and warfarin was pipetted into the sample receiving plate (in triplicate), and immediately the corresponding volume of blank plasma or buffer was added to make the final volume of each sample 100 μL and the volume ratio of plasma:dialysis buffer 1:1. Then 400 μL of stop solution is added to these samples. These samples would be used as TO samples for determination of recovery and stability. […] All samples were analyzed by LC/MS/MS after protein precipitation, and the protein binding rate and recovery rate was calculated with the formula: % Unbound (unbound rate)=100*FC/TC, % Bound (bound rate)=100-% Unbound, % Recovery (recovery rate)=100*(FC+TC)/T0.
Background: In equilibrium dialysis only unbound substance equilibrates across the membrane.

Another series concerns the target T1, CYP2C19 (Homo sapiens, UniProt P33261).
T1 construct: from tissue; host or cells: human liver microsomes
Description: Inhibition of human liver microsomal cytochrome P450 isoenzymes. It counts as in vitro ADME. To be noted: human liver microsomes. How it is done:
(§3) Objectives of experiment: To determine the inhibitory effect of the test compound on the activity of human liver microsomal cytochrome P450 isoenzymes (CYP1A2, CYP2C9, CYP2C19, CYP2D6 and CYP3A4). Experimental operation: First, the test compound (10 mM) was diluted in a gradient to prepare the working solutions (100× final concentration). The concentrations of the working solutions were 5, 1.5, 0.5, 0.15, 0.05, 0.015 and 0.005 mM. Meanwhile, the working solutions of mixture (5 in 1) of positive inhibitors of each P450 isoenzyme (CYP1A2, CYP2C9, CYP2C19, CYP2D6 and CYP3A4) and the specific substrate of the isoenzymes were also prepared; the human liver microsomes frozen in the refrigerator at −80° C. were unfrozen on ice. After the human liver microsomes were completely dissolved, they were diluted with PB to prepare a certain concentration (0.253 mg/mL) of working solution; 20 uL of the substrate mixture was added into the reaction plate (20 μl PB was added into the Blank well) as well as 158 μL of human liver microsome working solution, then the reaction plate was placed on ice and set aside; at this time, 2 μL of each concentration of test compound (N=1) and specific inhibitor (N=2) were added to the corresponding well, the group without inhibitor (test compound or positive inhibitor) was added with the corresponding organic solvent as a control sample (the test compound control sample was 1:1 DMSO:MeOH, and the positive control sample was 1:9 DMSO:MeOH); after pre-incubating in a 37° C. water bath for 10 min, the reaction plate was added with 20 μL of coenzyme factor (NADPH) solution and water bathed at 37° C. for 10 min; 400 μL of cold acetonitrile solution (internal standard was 200 ng/mL Tolbutamide and Labetalol) was added to terminate the reaction; the reaction plate was then placed on a shaker and shaken for 10 min, followed by centrifuging at 4,000 rpm for 20 min; 200 μL of supernatant was added to 100 μL of water for sample dilution; finally, the plate was sealed, shaken well, and subjected to LC/MS/MS detection.
In general terms: Microsomes from liver hold many membrane-bound enzymes, among them those of drug oxidation.

Another series has as its target T2, CYP1A2 (Homo sapiens, UniProt P05177).
T2 construct: from tissue; host or cells: human liver microsomes
T2 sequence (P05177 1-516): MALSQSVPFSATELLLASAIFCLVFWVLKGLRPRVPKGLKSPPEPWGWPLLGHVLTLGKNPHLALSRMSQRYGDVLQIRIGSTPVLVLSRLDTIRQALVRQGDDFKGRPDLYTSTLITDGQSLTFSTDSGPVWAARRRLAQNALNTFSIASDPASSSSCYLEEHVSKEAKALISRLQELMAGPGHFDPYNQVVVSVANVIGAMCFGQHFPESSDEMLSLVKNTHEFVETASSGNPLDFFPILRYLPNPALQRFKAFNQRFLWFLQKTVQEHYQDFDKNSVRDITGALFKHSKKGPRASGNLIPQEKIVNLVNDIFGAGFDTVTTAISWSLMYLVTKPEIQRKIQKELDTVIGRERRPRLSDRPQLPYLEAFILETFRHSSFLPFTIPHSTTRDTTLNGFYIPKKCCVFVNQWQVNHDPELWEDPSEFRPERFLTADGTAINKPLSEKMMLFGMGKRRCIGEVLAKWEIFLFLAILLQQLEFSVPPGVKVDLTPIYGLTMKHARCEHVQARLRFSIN
The series is described as above. The format is in vitro ADME. As to conditions: human liver microsomes. How it is done: as §3

In another series the target is T3, CYP2D6 (Homo sapiens, UniProt P10635).
T3 construct: from tissue; host or cells: human liver microsomes
T3 sequence (P10635 whole entry): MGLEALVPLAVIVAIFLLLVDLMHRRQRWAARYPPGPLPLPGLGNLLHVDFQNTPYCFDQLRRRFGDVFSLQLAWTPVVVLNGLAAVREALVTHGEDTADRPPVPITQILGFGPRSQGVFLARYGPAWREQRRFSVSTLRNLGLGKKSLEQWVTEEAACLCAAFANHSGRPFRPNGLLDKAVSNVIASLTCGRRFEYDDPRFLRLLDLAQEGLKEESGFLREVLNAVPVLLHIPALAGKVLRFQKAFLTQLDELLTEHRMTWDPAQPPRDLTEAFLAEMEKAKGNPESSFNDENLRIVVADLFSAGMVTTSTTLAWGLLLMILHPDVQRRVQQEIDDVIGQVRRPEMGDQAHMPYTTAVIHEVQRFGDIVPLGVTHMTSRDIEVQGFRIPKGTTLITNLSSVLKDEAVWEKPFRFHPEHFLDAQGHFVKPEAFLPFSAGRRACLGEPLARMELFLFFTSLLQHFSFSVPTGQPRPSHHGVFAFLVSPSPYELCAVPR
The description is as above. It counts as in vitro ADME. As to conditions: human liver microsomes. Here is the method: as §3

The target in the next series is T4, CYP3A4 (Homo sapiens, UniProt P08684).
T4 construct: from tissue; host or cells: human liver microsomes
T4 sequence (P08684 whole entry): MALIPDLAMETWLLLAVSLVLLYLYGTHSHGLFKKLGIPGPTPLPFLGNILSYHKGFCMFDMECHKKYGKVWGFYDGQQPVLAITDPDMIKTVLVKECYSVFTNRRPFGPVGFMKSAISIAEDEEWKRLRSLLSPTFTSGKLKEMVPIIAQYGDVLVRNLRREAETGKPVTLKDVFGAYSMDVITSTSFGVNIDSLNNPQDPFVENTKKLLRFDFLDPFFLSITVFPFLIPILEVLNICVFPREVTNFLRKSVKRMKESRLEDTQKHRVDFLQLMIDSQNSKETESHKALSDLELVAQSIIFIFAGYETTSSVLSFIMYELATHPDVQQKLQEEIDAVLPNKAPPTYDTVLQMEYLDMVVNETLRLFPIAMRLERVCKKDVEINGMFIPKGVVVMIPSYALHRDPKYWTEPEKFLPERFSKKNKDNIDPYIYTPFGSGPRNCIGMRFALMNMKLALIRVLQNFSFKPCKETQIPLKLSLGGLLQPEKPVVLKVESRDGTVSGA
The description is as above. It counts as in vitro ADME. To be noted: human liver microsomes. How it is done: as §3

A further series deals with T5, CYP2C9 (Homo sapiens, UniProt P11712).
T5 construct: from tissue; host or cells: human liver microsomes
T5 sequence (P11712 whole entry): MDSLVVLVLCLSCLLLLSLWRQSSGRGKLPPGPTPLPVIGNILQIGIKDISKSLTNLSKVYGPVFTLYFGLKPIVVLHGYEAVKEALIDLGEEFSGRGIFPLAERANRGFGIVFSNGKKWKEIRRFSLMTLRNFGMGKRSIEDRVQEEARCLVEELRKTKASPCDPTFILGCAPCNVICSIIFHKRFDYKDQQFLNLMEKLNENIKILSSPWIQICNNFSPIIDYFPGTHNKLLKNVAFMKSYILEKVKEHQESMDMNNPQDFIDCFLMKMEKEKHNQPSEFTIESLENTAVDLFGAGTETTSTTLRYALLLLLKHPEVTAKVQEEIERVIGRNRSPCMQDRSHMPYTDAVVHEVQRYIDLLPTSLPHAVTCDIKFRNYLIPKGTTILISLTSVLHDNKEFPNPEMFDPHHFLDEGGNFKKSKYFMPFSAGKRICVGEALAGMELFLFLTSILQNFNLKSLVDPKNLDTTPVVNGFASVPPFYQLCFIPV
Described as above. It counts as in vitro ADME. As to conditions: human liver microsomes. Here is the method:
as §3

The test system of a further series is proteins in human plasma. Nature of the series: Plasma protein binding rate (equilibrium dialysis). It counts as in vitro ADME. Here is the method:
as §1, §2

As a reminder, the IC50 is the midpoint of a concentration-inhibition curve. A higher IC50 goes with weaker potency in that assay.

Bounds are passed on as bounds.

T1 sequence (P33261 whole entry): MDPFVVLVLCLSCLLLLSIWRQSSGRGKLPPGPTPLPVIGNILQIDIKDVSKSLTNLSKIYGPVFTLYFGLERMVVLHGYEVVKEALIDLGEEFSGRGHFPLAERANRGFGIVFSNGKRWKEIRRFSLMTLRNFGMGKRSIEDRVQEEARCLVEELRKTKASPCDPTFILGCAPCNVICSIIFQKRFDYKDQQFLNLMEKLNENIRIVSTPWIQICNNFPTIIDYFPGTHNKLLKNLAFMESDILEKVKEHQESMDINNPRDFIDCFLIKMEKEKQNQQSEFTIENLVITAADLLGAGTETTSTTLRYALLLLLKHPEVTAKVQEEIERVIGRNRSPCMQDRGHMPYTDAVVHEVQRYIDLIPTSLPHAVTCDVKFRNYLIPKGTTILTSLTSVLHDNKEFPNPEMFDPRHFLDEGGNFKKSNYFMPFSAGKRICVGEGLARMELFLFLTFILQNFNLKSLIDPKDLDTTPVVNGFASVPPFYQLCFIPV

Turning to `Cc1cc2n(c1)S(=O)(=O)c1ccc(C(=O)NCC[C@H]3COCCO3)cc1NC2=O` [compound represented by formula (I)], the “binding rate to plasma proteins (conclusion in words)” value (in series [1]; in the series with proteins in human plasma) was “lower binding rate” throughout. The results for the “Binding rate of plasma protein” value (in series [1] (2 μM); in the series with proteins in human plasma (2 μM)) were 94% and 81%, respectively. Besides, the IC50 against CYP2C19, on CYP1A2, on CYP2D6, against CYP3A4 and against CYP2C9 was above 50 µM each time. In addition, the “inhibitory effect on CYP2C19 (conclusion in words)” value against CYP2C19 is on record as “no evident inhibitory effect”. The “inhibitory effect on CYP1A2 (conclusion in words)” value at CYP1A2 is “no evident inhibitory effect”. Moreover, the “inhibitory effect on CYP2D6 (conclusion in words)” value on CYP2D6 is given as “no evident inhibitory effect”. The “inhibitory effect on CYP3A4 (conclusion in words)” value at CYP3A4 is given as “no evident inhibitory effect”. Further, the “inhibitory effect on CYP2C9 (conclusion in words)” value against CYP2C9 is on record as “no evident inhibitory effect”.
